Assay results taken from patent publication US5981219A, “DNA molecules which code for a plastid 2-oxoglutarate/malate translocator” (Hoechst Schering Agrevo GmbH, priority 1919, dated 1999).

Key:
[1] = biological target: T1, recombinant 2-oxoglutarate/malate translocator (transformed SP-DC3 cells) (Spinacia oleracea, UniProt Q41364); assay: Reconstituted malate transport activity (inhibitor stop method), recombinant protein from transformed SP-DC3 yeast cells in liposomes; format: biochemical, spinach (expressed in Schizosaccharomyces pombe); conditions: for transport activity, percentage of activity measured with malate-preloaded liposomes: recombinant protein (transformed SP-DC3 cells), liposomes preloaded with the indicated dicarboxylate, standard deviation in brackets
T1 construct: made in house; host or cells: Schizosaccharomyces pombe (SP-DC3 cells, plasmid pEVP11-211)
T1 sequence (Q41364 94-569): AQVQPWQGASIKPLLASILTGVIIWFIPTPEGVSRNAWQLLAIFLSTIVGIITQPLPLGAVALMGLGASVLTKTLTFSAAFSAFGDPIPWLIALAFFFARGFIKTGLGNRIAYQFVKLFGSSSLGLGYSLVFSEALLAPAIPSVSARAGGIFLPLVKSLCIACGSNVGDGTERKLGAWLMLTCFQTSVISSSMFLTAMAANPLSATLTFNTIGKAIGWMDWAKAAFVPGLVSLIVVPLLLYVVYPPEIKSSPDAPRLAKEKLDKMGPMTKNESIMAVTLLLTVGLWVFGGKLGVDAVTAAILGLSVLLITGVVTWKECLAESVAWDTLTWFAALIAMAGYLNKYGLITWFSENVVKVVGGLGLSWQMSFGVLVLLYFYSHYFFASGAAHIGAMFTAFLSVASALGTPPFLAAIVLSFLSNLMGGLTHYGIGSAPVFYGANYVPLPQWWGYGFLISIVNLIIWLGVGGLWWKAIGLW
Description: (§1) Yeast cells transformed with pEVP11-211 plasmid (see FIG. 2A, SP-DC3 cells) were grown in minimum essential medium up to an optical density of 1.0 at 600 nm and harvested by centrifugation at 3,000×g for 5 minutes. The cells were disrupted by vigorously shaking the mixture with 1/2 vol. (based on the cells) glass beads and glass beads and cell debris were separated by centrifugation (600 g for 1 minute). The supernatant was adjusted to a concentration of 0.5% (weight/volume) Triton X-100, an equal volume of liposomes was added to the mixture and the resulting proteoliposomes were immediately frozen in liquid nitrogen. The liposomes were previously prepared by sonification of soy bean phospholipid (20 mg/ml for 10 minutes at 4° C. in the presence of 200 mM tricine NaOH (pH 7.6), 40 mM malate and 60 mM potassium gluconate. After thawing of the proteoliposomes and sonification of the suspension with 10 pulses a 1 s the proteoliposomes were separated from the surrounding medium by size exclusion chromatography on Sephadex G-25 which had been equilibrated with 10 mM tricine NaOH (pH 7.6), 100 mM sodium gluconate and 50 mM potassium gluconate. The eluted proteoliposomes were used for measuring malate transport activity. The measurement was carried out according to the "inhibitor stop" method described by Menzlaff and Flugge (1993, Biochim. Biophys. Acta 1147:13-18).
The malate transport activity in the pEVP11-211 transformants was compared with the malate transport activity of transformants that were merely transformed with the vector pEVP11 without the 211 insert.

[2] = biological target: T2, 2-oxoglutarate/malate translocator, envelope membrane of spinach chloroplasts (Spinacia oleracea, UniProt Q41364); assay: Reconstituted malate transport activity, envelope membrane proteins of spinach chloroplasts in liposomes; format: biochemical; conditions: for transport activity, percentage of activity measured with malate-preloaded liposomes: envelope membrane of spinach chloroplasts, liposomes preloaded with the indicated dicarboxylate, standard deviation in brackets
T2 construct: it is cleaved during the import process by a specific protease; the mature protein (m) is formed; from tissue; host or cells: spinach chloroplast envelope membranes
T2 sequence (Q41364 94-569): T1 sequence (Q41364 94-569)
Description: as §1
Whole yeast protein, envelope membrane proteins and the purified
2oxyoglutarate/malate translocator were reconstituted in liposomes which
were preloaded with the indicated dicarboxylates. The transport activitie
were measured as described by Menzlaff and Flugge (Biochim. Biophys. Acta
1993, 1147: 13-18) and are indicated in the percentage of activity
measured with malatepreloaded liposomes. The standard deviations are
indicated in brackets. The 100% transport activities (nMol/mg # protein
per minute) were 0.8 (recombinant protein), 21.4 (envelope membranes) and
263 (purified translocator protein).

[3] = tested on: purified 2-oxoglutarate/malate translocator protein; conditions: cited from earlier work; for transport activity, percentage of activity measured with malate-preloaded liposomes: liposomes preloaded with the indicated dicarboxylate
[4] = tested on: protein import into intact spinach chloroplasts; assay: Import of in vitro translated translocator precursor protein into intact spinach chloroplasts (SDS-PAGE, fluorography); conditions: light conditions, 10 μM CCCP (lane 8, FIG. 3)
Description: FIG. 3: Targeting of the 2-oxoglutarate/malate translocator precursor protein to the chloroplasts and energy-dependent insertion of the mature protein in the inner envelope membrane
SDS polyacrylamide gel electrophoresis was carried out as described in Example 6:
Lane 8: plus decoupling agent (10 μM CCCP) Lane 9: plus 2 mM ATP; protease-pretreated chloro-plasts (30 μg/ml)
The in vitro transcription of plasmid pBSC-211 which was linearized with SmaI was carried out using T3 RNA polymerase according to the instructions of the manufacturer (Pharmacia). Subsequent in vitro translation was carried out in the reticulocyte lysate (Boehringer-Mannheim). The post-ribosomal supernatant was used for protein transports in intact spinach chloroplasts. The experiment was carried out in the dark as well as in the light; the preparation contained import buffer (Flugge et al., 1989, EMBO J. 8:39-46), intact spinach chloroplasts (corresponding to 200 […]) and various additives indicated in the legend to FIG. 3 (entire volume: […]). After 15 minutes at 25° C. the chloroplasts were washed and the envelope membranes […] (Flugge et al., 1989, EMBO J. 8:39-46) […]. They were analyzed in a SDS polyacrylamide gel electrophoresis (Laemmli, 1970, Nature 227:680-685) and subsequent fluorography (Bonner and Laskey, 1974, Eur. J. Biochem. 46:84-88) (FIG. 3). […]

SMILES	100% transport activity ([1]; malate-preloaded liposomes, recombinant protein)	transport activity, percentage of activity measured with malate-preloaded liposomes [1]	transport activity, percentage of activity measured with malate-preloaded liposomes [2]	100% transport activity ([2]; malate-preloaded liposomes, envelope membranes)	transport activity, percentage of activity measured with malate-preloaded liposomes [3] [%]	100% transport activity ([3]; malate-preloaded liposomes)	protein import into chloroplasts [4]
O=C(O)CC(O)C(=O)O (stereo not drawn) [Malate]	0.8 nMol/mg protein per minute	100%	100%	21.4 nMol/mg protein per minute	100	263 nMol/mg protein per minute	–
N[C@@H](CCC(=O)O)C(=O)O [Glutamate]	–	3 (±1) %	6 (±1) %	–	–	–	–
O=C(O)CCC(=O)O [Succinate]	–	83 (±12) %	74 (±2) %	–	63	–	–
O=C(O)CCC(=O)C(=O)O [2-Oxoglutarate]	–	44 (±14) %	46 (±2) %	–	–	–	–
O=C(O)/C=C/C(=O)O [Fumarate]	–	119 (±24) %	72 (±2) %	–	65	–	–
N[C@@H](CC(=O)O)C(=O)O [Aspartate]	–	13 (±4) %	12 (±1) %	–	–	–	–
N#CC(C#N)=NNc1cccc(Cl)c1 [CCCP]	–	–	–	–	–	–	the protein import is blocked
O=C(O)CCCC(=O)O [Glutarate]	–	63 (±14) %	52 (±1) %	–	–	–	–
